Assay results taken from US20140249135A1, “PIM KINASE INHIBITORS AND METHODS OF THEIR USE” (NOVARTIS AG, priority 2007, published 2014).
Like-named read-outs stand apart in the source and are kept apart here.

How the values were obtained:
Format in all cases: biochemical
[1] = molecular target: Pim1 kinase (Homo sapiens, UniProt P11309); assay: Pim1 ATP depletion assay; conditions: Pim1 ATP depletion assay;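 note: Luciferase-luciferin luminescence readout of residual ATP after PIM1 transfers phosphate to a peptide substrate, 40 µM ATP added, reaction run to roughly half ATP consumption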
[2] = molecular target: Pim2 kinase (Homo sapiens, UniProt Q9P1W9); assay: Pim2 ATP depletion assay;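 note: Luciferase-based luminescent readout of ATP remaining after PIM2 phosphorylates a BAD peptide, final 5 nM enzyme, 4 µM ATP, 10 µM peptide, 2.5% DMSO, run to roughly half ATP consumption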
[3] = molecular target: Pim3 kinase (Homo sapiens, UniProt Q86V86); assay: Pim3 ATP depletion assay

Chain of Pim2 kinase (Q9P1W9 whole entry): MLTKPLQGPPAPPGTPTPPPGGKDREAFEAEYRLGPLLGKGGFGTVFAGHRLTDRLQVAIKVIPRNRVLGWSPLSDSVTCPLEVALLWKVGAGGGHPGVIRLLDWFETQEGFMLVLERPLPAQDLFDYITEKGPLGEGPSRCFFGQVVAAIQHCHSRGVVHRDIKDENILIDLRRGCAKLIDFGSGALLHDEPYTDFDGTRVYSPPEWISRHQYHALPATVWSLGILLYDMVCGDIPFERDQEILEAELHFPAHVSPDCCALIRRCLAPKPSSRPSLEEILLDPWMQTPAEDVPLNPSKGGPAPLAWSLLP
Chain of Pim1 kinase (P11309 whole entry): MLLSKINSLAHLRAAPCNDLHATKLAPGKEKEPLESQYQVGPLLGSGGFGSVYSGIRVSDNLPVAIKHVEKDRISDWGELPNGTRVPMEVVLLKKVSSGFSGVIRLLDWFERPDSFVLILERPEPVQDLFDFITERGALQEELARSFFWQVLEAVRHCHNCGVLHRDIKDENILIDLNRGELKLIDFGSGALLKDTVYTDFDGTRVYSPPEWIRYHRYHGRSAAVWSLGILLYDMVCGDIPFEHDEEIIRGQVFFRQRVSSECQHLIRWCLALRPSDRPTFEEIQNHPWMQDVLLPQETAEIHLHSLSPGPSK

Row | SMILES | IC50 ([1]; read-out: PIM1 IC50) | IC50 ([2]; read-out: PIM2 IC50) | IC50 ([3]; read-out: PIM3 IC50) | IC50 ([1]; read-out: IC50 (μM) PIM1) | IC50 ([2]; read-out: IC50 (μM) PIM2) | IC50 ([3]; read-out: IC50 (μM) PIM3)
1 | Cc1cc(-c2ccncc2NC(=O)c2nc(-c3ccccc3F)ccc2N)cc(N)n1 [Example 624, 3-amino-N-(2′-amino-6′-methyl-4,4′-bipyridin-3-yl)-6-(2-fluorophenyl)pyridine-2-carboxamide] | < 1 µM | < 1 µM | < 1 µM |  |  | 
2 | NC1CC(CO)CN(c2ccncc2NC(=O)c2nc(-c3c(F)cccc3F)ccc2F)C1 (stereo not drawn) [Example 575, 6-(2,6-Difluoro-phenyl)-3-fluoro-pyridine-2-carboxylic acid (5-amino-3-hydroxymethyl-3,4,5,6-tetrahydro-2H-[1,4′]bipyridinyl-3′-yl)-amide] | < 1 µM | < 1 µM | 1 to 10 µM |  |  | 
3 | Nc1ccc(-c2c(F)cccc2F)nc1C(=O)Nc1cnccc1N1CCC[C@H](O)C1 [Example 653, 3-Amino-6-(2,6-difluoro-phenyl)-pyridine-2-carboxylic acid (3-hydroxy-3,4,5,6-tetra-hydro-2H-[1,4′]bipyridinyl-3′-yl)-amide] | < 1 µM | < 1 µM | < 1 µM |  |  | 
4 | COc1cccc(-c2nc(C(=O)Nc3cnccc3N3CCC[C@H](N)C3)c(N)cc2F)n1 [Example 512, 5-Amino-3-fluoro-6′-methoxy-[2,2′]bipyridinyl-6-carboxylic acid (3-amino-3,4,5,6-tetrahydro-2H-[1,4′]bipyridinyl-3′-yl)-amide] |  |  |  | < 1 µM | < 1 µM | < 1 µM
5 | N[C@H]1CCCN(c2ccncc2NC(=O)c2cccc(C3CCCCC3)n2)C1 [Example 635, 6-Cyclohexyl-pyridine-2-carboxylic acid (3-amino-3,4,5,6-tetrahydro-2H-[1,4′]bipyridinyl-3′-yl)-amide] | < 1 µM | < 1 µM | < 1 µM |  |  | 
6 | CC(C)NC(=O)c1ccc(F)c(-c2cccc(C(=O)Nc3cnccc3-c3cc(N)nc(C(F)(F)F)n3)n2)c1 [Example 553, 6-(2-Fluoro-5-isopropylcarbamoyl-phenyl)-pyridine-2-carboxylic acid [4-(6 amino-2-trifluoromethyl-pyrimidin-4-yl)-pyridin-3-yl]-amide] | < 1 µM | < 1 µM | < 1 µM |  |  | 
7 | Nc1cnc(-c2ccccc2F)nc1C(=O)Nc1cnccc1N1C[C@H](N)C[C@H](N)C1 [Example 247, 5-Amino-2-(2-fluoro-phenyl)-pyrimidine-4-carboxylic acid (3,5-diamino-3,4,5,6-tetrahydro-2H-[1,4′]bipyridinyl-3′-yl)-amide] |  |  |  | < 1 µM | < 1 µM | < 1 µM
8 | Nc1ccc(-c2sccc2Cl)nc1C(=O)Nc1cnccc1N1CCC[C@H](N)C1 [Example 474, 3-Amino-6-(3-chloro-thiophen-2-yl)-pyridine-2-carboxylic acid (3-amino-3,4,5,6-tetrahydro-2H-[1,4′]bipyridinyl-3′-yl)-amide] |  |  |  | < 1 µM | < 1 µM | < 1 µM
9 | Cc1cc(-c2ccncc2NC(=O)c2nc(-c3c(F)cccc3F)c(F)cc2N)cc(N)n1 [Example 619, 3-amino-N-(2′-amino-6′-methyl-4,4′-bipyridin-3-yl)-6-(2,6-difluorophenyl)-5-fluoropyridine-2-carboxamide] | < 1 µM | < 1 µM | < 1 µM |  |  | 
10 | NCCC(=O)N1CCN(c2ccncc2NC(=O)c2nc(-c3ccccc3F)ccc2N)CC1 [Example 251, 3-Amino-6-(2-fluoro-phenyl)-pyridine-2-carboxylic acid {4-[4-(3-amino-propionyl)-piperazin-1-yl]-pyridin-3-yl}-amide] |  |  |  | < 1 µM | < 1 µM | < 1 µM
11 | Nc1ccc(-c2ccccc2F)nc1C(=O)Nc1cnccc1N1C[C@H](N)C[C@H](N)C1 [Example 248, 3-Amino-6-(2-fluoro-phenyl)-pyridine-2-carboxylic acid (3,5-diamino-3,4,5,6-tetrahydro-2H-[1,4′]bipyridinyl-3′-yl)-amide] |  |  |  | < 1 µM | < 1 µM | < 1 µM
12 | Cc1ccc(-c2ccc(N)c(C(=O)Nc3cnccc3N3CCC[C@H](N)C3)n2)c(F)n1 [Example 476, 5-Amino-2′-fluoro-6′-methyl-[2,3′]bipyridinyl-6-carboxylic acid (3-amino-3,4,5,6-tetrahydro-2H-[1,4′]bipyridinyl-3′-yl)-amide] |  |  |  | < 1 µM | < 1 µM | < 1 µM
13 | NC(=O)c1ccc(-c2ccc(N)c(C(=O)Nc3cnccc3N3CCC[C@H](N)C3)n2)nc1 [Example 691, 5′-Amino[2,2′]bipyridinyl-5,6′-dicarboxylic acid 5-amide 6′-[(3-amino-3,4,5,6-tetrahydro-2H-[1,4′]bipyridinyl-3′-yl)-amide]] | < 1 µM | < 1 µM | < 1 µM |  |  | 
14 | CC(C)NC(=O)c1ccc(F)c(-c2ccc(N)c(C(=O)Nc3cnccc3N3CCC[C@H](O)C3)n2)c1 [Example 651, 3-Amino-6-(2-fluoro-5-isopropylcarbamoyl-phenyl)-pyridine-2-carboxylic acid (3-hydroxy-3,4,5,6-tetrahydro-2H-[1,4′]bipyridinyl-3′-yl)-amide] | < 1 µM | < 1 µM | < 1 µM |  |  | 
15 | N#CCc1cccc(-c2ccc(N)c(C(=O)Nc3cnccc3N3CCC[C@H](N)C3)n2)c1 [Example 457, 3-Amino-6-(3-cyanomethyl-phenyl)-pyridine-2-carboxylic acid (3-amino-3,4,5,6-tetrahydro-2H-[1,4′]bipyridinyl-3′-yl)-amide] |  |  |  | < 1 µM | < 1 µM | < 1 µM
16 | Nc1ccc(-c2nc(C(=O)Nc3cnccc3N3CCC[C@H](N)C3)c(N)cc2F)cn1 [Example 514, 5,6′-Diamino-3-fluoro-[2,3′]bi-pyridinyl-6-carboxylic acid (3-amino-3,4,5,6-tetrahydro-2H-[1,4′]bipyridinyl-3′-yl)-amide] |  |  |  | < 1 µM | < 1 µM | < 1 µM
17 | CSc1nc(N)cc(-c2ccncc2NC(=O)c2nc(-c3c(F)ccc(OC(C)C)c3F)ccc2N)n1 [Example 536, 3-Amino-6-(2,6-difluoro-3-isopropoxy-phenyl)-pyridine-2-carboxylic acid [4-(6-amino-2-methylsulfanyl-pyrimidin-4-yl)-pyridin-3-yl]-amide] | < 1 µM | < 1 µM | < 1 µM |  |  | 
18 | Nc1ccc(-c2cccc(Br)c2)nc1C(=O)Nc1cnccc1N1CCC[C@H](N)C1 [Example 459, 3-Amino-6-(3-bromo-phenyl)-pyridine-2-carboxylic acid (3-amino-3,4,5,6-tetrahydro-2H-[1,4′]bipyridinyl-3′-yl)-amide] |  |  |  | < 1 µM | < 1 µM | < 1 µM
19 | Nc1ccc(-c2ccccc2F)nc1C(=O)Nc1cnccc1-c1cnc(N)c(C(F)(F)F)c1 [Example 603, 3-amino-N-[6-amino-5-(tri-fluoromethyl)-3,4′-bipyridin-3′-yl]-6-(2-fluorophenyl)pyridine-2-carboxamide] | < 1 µM | < 1 µM | < 1 µM |  |  | 
20 | Nc1ccc(-c2ncccc2F)nc1C(=O)Nc1cnccc1N1CCC[C@H](O)C1 [Example 690, 5-Amino-3′-fluoro-[2,2′]bi-pyridinyl-6-carboxylic acid (3-hydroxy-3,4,5,6-tetrahydro-2H-[1,4′]bipyridinyl-3′-yl)-amide] | < 1 µM | < 1 µM | < 1 µM |  |  | 
21 | NC(=O)c1ccc(N2CCCCC2)c(NC(=O)c2nccnc2N)c1 [Example 170, 3-amino-N-(5-carbamoyl-2-(piperidin-1-yl)phenyl)pyrazine-2-carboxamide] |  |  |  | < 1 µM | 1 to 10 µM | < 1 µM
22 | Nc1cnc(-c2cccc(F)c2F)nc1C(=O)Nc1cnccc1N1CCC[C@H](N)C1 [Example 546, 5-Amino-2-(2,3-difluoro-phenyl)-pyrimidine-4-carboxylic acid (3-amino-3,4,5,6-tetrahydro-2H-[1,4′]bipyridinyl-3′-yl)-amide] | < 1 µM | < 1 µM | < 1 µM |  |  | 
23 | CC(C)COc1cncc(-c2nc(C(=O)Nc3cnccc3N3CCC[C@H](N)C3)c(N)cc2F)n1 [Example 741, 3Amino-5-fluoro-6-(6-isobutoxy-pyrazin-2-yl)-pyridine-2-carboxylic acid (3-amino-3,4,5,6-tetrahydro-2H-[1,4′]bipyridinyl-3′-yl)-amide] | < 1 µM | < 1 µM | < 1 µM |  |  | 
24 | N[C@H]1CCCN(c2ccncc2NC(=O)c2ccnc(-c3ccccc3F)n2)C1 [Example 250, N-{4-[(3S)-3-aminopiperidin-1-yl]pyridin-3-yl}-2-(2-fluoro-phenyl)pyrimidine-4-carbox-amide] |  |  |  | < 1 µM | < 1 µM | < 1 µM
25 | COc1ccc(F)c(-c2nc(C(=O)Nc3cnccc3N3CCC[C@H](N)C3)c(N)cc2F)c1 [Example 502, 3-Amino-5-fluoro-6-(2-fluoro-5-methoxy-phenyl)-pyridine-2-carboxylic acid (3-amino-3,4,5,6-tetrahydro-2H-[1,4′]bipyridinyl-3′-yl)-amide] |  |  |  | < 1 µM | < 1 µM | < 1 µM
26 | Cc1cccc(-c2ccc(N)c(C(=O)Nc3cnccc3N3CCC[C@H](N)C3)n2)n1 [Example 726, 5-Amino-6′-methyl-[2,2′]bi-pyridinyl-6-carboxylic acid (3-amino-3,4,5,6-tetrahydro-2H-[1,4′]bipyridinyl-3′-yl)-amide] | < 1 µM | < 1 µM | < 1 µM |  |  | 
27 | Nc1ccc(-c2c(F)cccc2F)nc1C(=O)Nc1cnccc1N1CCCCC1 [Example 588, 3-amino-6-(2,6-difluoro-phenyl)-pyridine-2-carboxylic acid (3,4,5,6-tetrahydro-2H-[1,4′]bipyridinyl-3′-yl)-amide] | < 1 µM | < 1 µM | < 1 µM |  |  | 
